The record followed here is ChEMBL document CHEMBL3507680, “University of Dundee, Gates Library screen for HepG2 cell viability”.

Molecules are shown by their SMILES.

A short description of this data set: Human HepG2 cell viability assay in 384 well format. On the set-up: dose 125 nL, time 70.5 hour; cytotoxicity at 70.5 h: concentration not given beside the values. The conditions noted are these: HepG2 cells, read-out: Inhibition. The class given is toxicity, cell-based.
Regarding `CNC(=O)CCc1cc(C)nc(C2CCCCN2)n1` (stereo not given), the cytotoxicity at 70.5 h is -4.98%.
Turning to `Cc1cc(C(=O)N2CC(O)CO2)c2ccc(C)c(C)c2n1` (stereo not given), the cytotoxicity at 70.5 h is -6.82%.
Regarding `O=S(=O)(c1cn[nH]c1)N1CCC(O)(CN2CCC(F)(F)CC2)C1` (stereo not given), the cytotoxicity at 70.5 h came out at 1.83%.
Turning to `COCCn1cnnc1Cn1ccnc1-c1ccccc1C`, the cytotoxicity at 70.5 h turned out to be 1.73%.
As for `Cc1cc(C(=O)N2CCN(c3nc4c(F)cccc4s3)CC2)no1`, the figure is -7.99%; as for `COc1cccc2cc(CNCc3ccnc(N4CCOCC4)c3)oc12`, 11.7%.
`OCCN1CCN(Cc2coc(-c3ccccc3Cl)n2)CC1`: the cytotoxicity at 70.5 h is -19.7%.
As for `CCS(=O)(=O)CCNC(=O)C1(c2cccc(Cl)c2)CC1`, the figure is 15.5%; as for `CCc1nc(CCNC(=O)NC2CCC(=O)N(C)C2)sc1C` (stereo not given), -8.41%.
Turning to `CN(Cc1cccc(O)c1)Cc1cnn(C)c1`, the cytotoxicity at 70.5 h is -4.55%.
As for `CN(C)c1nccnc1C1CCN(c2cnccn2)CC1`, the figure is -3.32%; as for `Cc1ccc(CN2CCN(C3CCCC3)CC2CCO)o1` (stereo not given), 8.76%; as for `CN(c1ccccc1C(=O)O)S(=O)(=O)c1cccc2cccnc12`, -6.45%.
`NC(=O)c1cnn2c1NCC(CNCCCOc1ccccc1F)C2` (stereo not given): the cytotoxicity at 70.5 h was found to be 6.81%.
Consider `CCc1nc(CNc2ccc(F)cc2I)no1`, for which the cytotoxicity at 70.5 h is 2.16%.
As for `CNC(=O)[C@@]12CCC3(CCN(C(=O)COC)CC3)[C@@H]1CN(S(C)(=O)=O)C2`, the figure is 4.47%.
Regarding `CC(C)CCN1CCC2(CNS(=O)(=O)c3cccnc3O2)C1` (stereo not given), the cytotoxicity at 70.5 h is 26.8%.
As for `CCn1nc(C(C)C)cc1C(=O)N1CC(OCc2ccccc2F)C1`, the cytotoxicity at 70.5 h worked out at 0.716%.
As for `CCNC(=O)NCCc1csc(N2CCCC2)n1`, the figure is -9.41%; as for `O=C(Nc1ccccc1C(=O)NCCN1CCOCC1)c1ccco1`, 24.9%; as for `Cn1cc(C2CCCN2C(=O)c2cnc(-c3ccco3)s2)cn1` (stereo not given), -4.49%.
With `Cc1cc(N2CCCN(c3ccnc(C)c3)CC2)ccn1`, the cytotoxicity at 70.5 h was -7.78%.
For the molecule `CC(C)c1nsc(N2CCC(OCCN3CCOCC3)CC2)n1`, the cytotoxicity at 70.5 h was -22.2%.
As for `Cc1c(S(=O)(=O)N(CCc2ccccc2)Cc2ccn(C)n2)cnn1C`, the figure is -8.56%; as for `c1nc(-c2nc(C3CCOC3)no2)cs1` (stereo not given), -1.71%.
As for `CC(NC1(CNC(=O)CC2CCCC2)CCOCC1)c1ccccc1` (stereo not given), the figure is -6.24%; as for `CN(C)CCn1c2c(ccc1=O)CC(NCc1cnn(C)c1)CC2` (stereo not given), -8.72%.
As for `CCN1CC[C@]2(CN(Cc3nccs3)C[C@H]2c2ccccc2)C1=O`, the figure is -0.124%; as for `CC(=O)NCc1cccc(-n2ccnc2-c2cccc(C(=O)O)c2)c1`, 16.6%.
Take `O=C(O)C(c1ccc2[nH]ccc2c1)N1CCN(c2cnccn2)CC1` (stereo not given): the cytotoxicity at 70.5 h was -3.87%.
Regarding `CN(C)C1CC2(CCN(C(=O)c3csnn3)CC2)c2ccccc21` (stereo not given), the cytotoxicity at 70.5 h was -0.291%.
As for `CNC(=O)CC1COCCN1C(=O)C1(c2ccc(Cl)cc2)CCC1` (stereo not given), the figure is 7.35%; as for `CCc1cc(N2CCC(n3cc(C(=O)NC4CC4)nn3)CC2)ncn1`, 12.5%.
As for `CCN1CCC(CC(=O)NCC(O)c2cccc(OC)c2)CC1` (stereo not given), the figure is -6.22%; as for `O=C(CN1CCN(CCO)CC1)NC(C1CC1)C1CC1`, -5.18%; as for `CC(C)n1nc(Cn2cccc2)c2c1CN(C1CCOCC1)C2`, 0.409%.
In the case of `CCCN1CCC(c2cc(CCOc3ccc(C(F)(F)F)cc3)[nH]n2)C1` (stereo not given), the cytotoxicity at 70.5 h was 0.882%.
As for `CCN(CC)Cc1ccc(C(=O)N2CCCC2Cn2cc(C)cn2)o1` (stereo not given), the figure is 2.44%; as for `CN(Cc1ccncc1)Cc1cnn(-c2ccc(F)cc2)c1`, -13.3%.
In the case of `COC(=O)c1ccc(N2CCN(C(=O)c3ccc(O)nc3)C(C)C2)cc1` (stereo not given), the cytotoxicity at 70.5 h was -7.53%.
Take `CNC(=O)CN1CCCC12CCN(C(=O)c1ccsc1)CC2`: the cytotoxicity at 70.5 h was -6.13%.
As for `Cc1ccc(C(=O)N2CCC3(CCN(C(=O)c4cccnc4)C3)CC2)o1`, the figure is -19.3%; as for `Cc1ccccc1C1CCCN(C(=O)c2c[nH]c(=O)c(Cl)c2)C1` (stereo not given), -12%; as for `Cn1ccnc1CN1CCCN(C(=O)c2cccc(CC#N)c2)CC1`, 11.5%.
`Cc1ccc(C(=O)NS(=O)(=O)c2ccccc2F)c(=O)[nH]1`: the cytotoxicity at 70.5 h is -1.46%.
Consider `Cn1cnnc1C1CCCN(C(=O)NCc2ccc3c(c2)OCO3)C1` (stereo not given), for which the cytotoxicity at 70.5 h was -0.469%.
As for `CC(C)NC(=O)N1CCN(CC2CC2)CC2(CNC(=O)C2)C1` (stereo not given), the figure is -17.7%; as for `CNc1cc(C(=O)NCCC2=CSC3=NCCCN23)ccn1`, 1.26%; as for `CNC(=O)C1CN(C(=O)c2ccccc2)Cc2cn(C)nc21` (stereo not given), 26.9%.
As to `CCc1nc(C2CCCN2C(=O)c2cnc[nH]2)no1` (stereo not given), the cytotoxicity at 70.5 h was -7.25%.
As for `Cc1nc(C2CN(C)CCO2)cc(N2CCC(C(N)=O)CC2)n1` (stereo not given), the figure is -10.6%; as for `O=C(NCCc1cc(N2CCOCC2)nc(N2CCCC2)n1)C1CC1`, -5.52%; as for `CC(=O)N1CCC2(CC1)CC(Oc1ccccc1)CO2` (stereo not given), -7.56%.
As for `O=C(C1SCCc2sccc21)N1CCN(CC(F)F)CC1` (stereo not given), the figure is -5.33%; as for `CC(C)(C)c1noc(CCC(=O)N2CCN(Cc3ccco3)CC2)n1`, -0.998%; as for `CN1C(=O)C2(NC(=O)c3ccccc3O2)c2ccccc21` (stereo not given), -16.5%.
As for `Cc1n[nH]cc1CNC(C(=O)N1CCCCC1)c1ccccc1` (stereo not given), the figure is 3.13%; as for `O=C1CCOC[C@]2(CN(Cc3ccccc3)C[C@H]2c2ccccc2F)N1`, 1.5%; as for `CCOCC1CN(Cc2ccc3c(c2)OCO3)Cc2ncn(C)c21` (stereo not given), -10.5%.
As for `CCOC(=O)c1coc(N2CCN(C(=O)c3cccc(OC)c3)CC2)n1`, the cytotoxicity at 70.5 h was -8.88%.
With `Cc1cccc(CN2CCc3nnc(CO)n3CC2)n1`, the cytotoxicity at 70.5 h was -3.1%.
As for `O=C([C@H]1COC[C@H]2CN(C3CCOCC3)C[C@H]21)N1CCCO1`, the figure is -1.26%; as for `CC(C)c1cc(NCC(O)CO)n2nccc2n1` (stereo not given), -0.638%.
As for `Cc1nc(-c2ccsc2)sc1C(=O)N1CCn2c(C)nnc2C1`, the figure is -0.696%.
As for `CCC(O)CN1CCN(C(=O)c2cc3ccccc3n2CC)CC1` (stereo not given), the figure is 12.7%; as for `Cc1ncc(C(=O)Nc2cncnc2N(C)C)c(Cl)c1Cl`, -9.76%; as for `CC1(C)CC(=O)c2cnc3nc(N4CCCCC4)nc(O)c3c2C1`, -11%.
Take `CC1NC(=O)COC12CCN(C(=O)Cc1ccsc1)CC2` (stereo not given): the cytotoxicity at 70.5 h amounted to 4.29%.
Take `Cc1ccn(CCC(=O)N2CCCC2c2nnc(-c3scnc3C)o2)n1` (stereo not given): the cytotoxicity at 70.5 h turned out to be 11.6%.
As for `Cc1cc2n(n1)CC(CNCc1ccccc1Cn1cccn1)CN2` (stereo not given), the figure is 4.35%; as for `Cc1cc(CN2CCN(CC(O)c3ccccc3)CC2)no1` (stereo not given), 0.624%; as for `C1CN(Cc2noc(C3CC3)n2)CCN(Cc2nnc(C3CC3)o2)C1`, 15.4%.
As for `Cn1cc(C2(C)CN(Cc3ccc(O)c(Cl)c3)CCO2)cn1` (stereo not given), the figure is -6.24%.
As for `COCCC(=O)Nc1ccnc(Oc2ccccc2)c1`, the figure is 2.24%; as for `CCOC(=O)[C@H]1CNC[C@@H]1C(=O)OCC`, 3.89%.
On to `CC(C)NC(=O)N1CCC(n2ccc(C(F)(F)F)n2)CC1`, for which the cytotoxicity at 70.5 h turned out to be 1.15%.
As to `Cc1cc(-c2cnn(CCNC(=O)Cc3ccccn3)c2C2CC2)on1`, the cytotoxicity at 70.5 h was -3.25%.
As for `Cc1cc(CN(C)C(=O)c2cccc(CCC(C)(C)O)c2)no1`, the figure is -7.67%; as for `CCN1CC(COC(=O)c2cccc(Br)c2)CC1=O` (stereo not given), -7.36%.
As for `CC1(NC(=O)Cc2csc(-c3cccc(Cl)c3)n2)CCS(=O)(=O)C1` (stereo not given), the figure is -63.1%; as for `CCn1nc(C)cc1C(=O)NCc1nc(C)no1`, -6.53%.
For the molecule `Cc1ccc2nc(CN(C)Cc3ccc(C)o3)cc(=O)n2c1`, the cytotoxicity at 70.5 h was -15%.
As for `O=C(NCCNc1ccc(C(F)(F)F)cn1)c1ccoc1`, the figure is -8.13%; as for `Cc1cc(C(=O)NC2(C#N)CCSCC2)n(C)n1`, -5.82%; as for `CC(C)C(Nc1nc(C(F)(F)F)nc2ccccc12)C(=O)O` (stereo not given), -1.94%.
For `Cc1noc(C)c1CN1CCO[C@H]2CN(Cc3cccnc3)C[C@H]21`, the cytotoxicity at 70.5 h was -4.34%.
For `CCOC(=O)c1sc(NC(=O)CCCC(=O)O)c(C#N)c1C`, the cytotoxicity at 70.5 h was -4.89%.
As for `COCC1CN(Cc2ccc(C)o2)Cc2ncn(CC3CC3)c21` (stereo not given), the figure is -8.02%; as for `Cc1ncc(-c2ccnc(SCCN(C)C)n2)c(-c2ccco2)n1`, 20.1%.
As for `Cc1cccc(CN2C(=O)CC[C@@H]3[C@H]2CCN3CC2CCOCC2)n1`, the figure is -18.9%; as for `CCCN(C)c1ccc(C(=O)NCc2ccnc(C)n2)cc1`, -10%.
As for `Cc1cnc(N2CCC3(C2)C(=O)N(C)CCN3Cc2cccnc2)nc1` (stereo not given), the figure is -5.14%; as for `Cc1nc2ccccn2c1CC(=O)N[C@@H]1CC[C@@H](N2CCCC2)[C@@H]1O`, -5.16%.
Regarding `CC(Cn1cccn1)NC(=O)Nc1nnc(C2CC2)s1` (stereo not given), the cytotoxicity at 70.5 h was -11%.
For the molecule `O=C(NCc1cccnc1)N1CCc2ncnc(NC3CC3)c2CC1`, the cytotoxicity at 70.5 h worked out at 11.7%.
As for `O=C(NCC1CC1)C1CCC2(CCN(C(=O)c3ccncc3)CC2)O1` (stereo not given), the figure is 10.5%; as for `Cc1cc(CC(C)NC(=O)c2n[nH]c3c2CCC3)n[nH]1` (stereo not given), 3.59%.
Take `Fc1cccc(-n2ccc(CN3CCCC3Cn3cccn3)n2)c1` (stereo not given): the cytotoxicity at 70.5 h was -14.3%.
In the case of `Cc1cc(NC(=O)CN2CCc3nn(C)c(=O)cc3C2)on1`, the cytotoxicity at 70.5 h was found to be 1.43%.
Take `Cc1cc(CNC(=O)N2CCN(c3ccccc3)CC2)no1`: the cytotoxicity at 70.5 h was -3.89%.
